We go through 43 compounds from patent publication US20150246902A1, “SUBSTITUED BENZOFURAN COMPOUNDS AND METHODS OF USE THEREOF FOR THE TREATMENT OF VIRAL DISEASES” (priority 2011, published 2015).

Assay [1] has as its system HCV replicon genotype 1a. In words: microbe, parasite or virus in culture. The conditions noted are these: Hepatitis C virus, 96 h, HCV genotype 1a replicon cells, 96 hours incubation, NS3/4A ELISA readout. Format: cell-based. (In general: Replicon systems follow genome replication, usually without infectious particles.)
The test system of assay [2] is HCV replicon genotype 1b. Nature of the assay: microbe, parasite or virus in culture. Format: cell-based. The conditions noted are these: Hepatitis C virus, 96 h, HCV genotype 1b replicon cells, 96 hours incubation, NS3/4A ELISA readout.

For `CNC(=O)c1c(-c2ccc(F)cc2)oc2cc(N(C)S(C)(=O)=O)c(-c3ccc4ncn(-c5ccc(OC)cc5)c4c3)cc12` [Compound 1, 2-(4-fluorophenyl)-5-(1-(4-methoxyphenyl)-1H-benzo[d]imidazol-6-yl)-N-methyl-6-(N-methylmethylsulfonamido)benzofuran-3-carboxamide], the IC50 in assay [1] is 16.5 nM; in assay [2] it was 4.6 nM.
For `CNC(=O)c1c(-c2ccc(F)cc2)oc2cc(N(C)S(C)(=O)=O)c(-c3ccc4ncn(-c5ccccc5)c4c3)cc12` [Compound 2], the IC50 amounted to 13.2 nM in assay [1] and 2.5 nM in assay [2].
The like results for `CNC(=O)c1c(-c2ccc(F)cc2)oc2cc(N(C)S(C)(=O)=O)c(-c3ccc4ncn(-c5ccccc5F)c4c3)cc12` [Compound 3] were, in that order, 68 nM and 5.8 nM.
For the compound `CNC(=O)c1c(-c2ccc(F)cc2)oc2cc(N(C)S(C)(=O)=O)c(-c3ccc4ncn(-c5cccc(OC)c5)c4c3)cc12` [Compound 4], the IC50 came out at 26.5 nM in assay [1] and 2.5 nM in assay [2].
For the compound `CNC(=O)c1c(-c2ccc(F)cc2)oc2cc(N(C)S(C)(=O)=O)c(-c3ccc4ncn(-c5ccc(C#N)cc5)c4c3)cc12` [Compound 5], the IC50 in assay [1] is 2.1 nM; in assay [2], 0.8 nM.
The like results for `CNC(=O)c1c(-c2ccc(F)cc2)oc2cc(N(C)S(C)(=O)=O)c(-c3ccc4ncn(-c5cccc(C#N)c5)c4c3)cc12` [Compound 6] were, in that order, 10.6 nM and 1.2 nM.
For `CNC(=O)c1c(-c2ccc(F)cc2)oc2cc(N(C)S(C)(=O)=O)c(-c3ccc4ncn(-c5ccc(C(F)(F)F)cc5)c4c3)cc12` [Compound 7], the IC50 in assay [1] turned out to be 2.6 nM; in assay [2], 2.2 nM.
The like results for `CNC(=O)c1c(-c2ccc(F)cc2)oc2cc(N(C)S(C)(=O)=O)c(-c3ccc4ncn(-c5cccc(C(F)(F)F)c5)c4c3)cc12` [Compound 8] were, in that order, 27.7 nM and 3.9 nM.
For the compound `CNC(=O)c1c(-c2ccc(F)cc2)oc2cc(N(C)S(C)(=O)=O)c(-c3ccc4ncn(-c5ccccc5C(F)(F)F)c4c3)cc12` [Compound 9], the IC50 in assay [1] stood at 75.8 nM; in assay [2], 7.1 nM.
The like results for `CNC(=O)c1c(-c2ccc(F)cc2)oc2cc(N(C)S(C)(=O)=O)c(-c3ccc4ncn(-c5ccc(Cl)cc5)c4c3)cc12` [Compound 10] were, in that order, 4 nM and 3.6 nM.
For the compound `CNC(=O)c1c(-c2ccc(F)cc2)oc2cc(N(C)S(C)(=O)=O)c(-c3ccc4ncn(-c5ccccc5Cl)c4c3)cc12` [Compound 11], the IC50 is 38.9 nM in assay [1] and 3.5 nM in assay [2].
On to `CNC(=O)c1c(-c2ccc(F)cc2)oc2cc(N(C)S(C)(=O)=O)c(-c3ccc4ncn(-c5cccc(Cl)c5)c4c3)cc12` [Compound 12], for which the IC50 in assay [1] stood at 11.7 nM; in assay [2] it was 2.6 nM.
As to `CNC(=O)c1c(-c2ccc(F)cc2)oc2cc(N(C)S(C)(=O)=O)c(-c3ccc4ncn(-c5ccc(S(C)(=O)=O)cc5)c4c3)cc12` [Compound 13], the IC50 in assay [1] stood at 18.2 nM; in assay [2], 3.8 nM.
The like results for `CNC(=O)c1c(-c2ccc(F)cc2)oc2cc(N(C)S(C)(=O)=O)c(-c3ccc4ncn(-c5cccc(F)c5)c4c3)cc12` [Compound 14] were, in that order, 2.7 nM and 1.2 nM.
For `CNC(=O)c1c(-c2ccc(F)cc2)oc2cc(N(C)S(C)(=O)=O)c(-c3ccc4ncn(-c5ccc(F)cc5)c4c3)cc12` [Compound 15], the IC50 in assay [1] was 5.5 nM; in assay [2], 1.2 nM.
The like results for `CNC(=O)c1c(-c2ccc(F)cc2)oc2cc(N(C)S(C)(=O)=O)c(-c3ccc4ncn(-c5cccnc5)c4c3)cc12` [Compound 16] were, in that order, 37.2 nM and 4.6 nM.
The like results for `CNC(=O)c1c(-c2ccc(F)cc2)oc2cc(N(C)S(C)(=O)=O)c(-c3ccc4ncn(-c5ccc(OC(F)(F)F)cc5)c4c3)cc12` [Compound 17] were, in that order, 37.6 nM and 12.8 nM.
The like results for `CNC(=O)c1c(-c2ccc(F)cc2)oc2cc(N(C)S(C)(=O)=O)c(-c3ccc4nc(C)n(-c5ccccc5)c4c3)cc12` [Compound 18] were, in that order, 16.6 nM and 2.1 nM.
For `CNC(=O)c1c(-c2ccc(F)cc2)oc2cc(N(C)S(C)(=O)=O)c(-c3ccc4nc(C)n(-c5ccc(F)cc5)c4c3)cc12` [Compound 19], the IC50 in assay [1] was determined as 12.8 nM; in assay [2], 2.2 nM.
The like results for `CNC(=O)c1c(-c2ccc(F)cc2)oc2cc(N(C)S(C)(=O)=O)c(-c3cc(F)c4ncn(-c5ccccc5)c4c3)cc12` [Compound 20] were, in that order, 6.1 nM and 2.4 nM.
In the case of `CNC(=O)c1c(-c2ccc(F)cc2)oc2cc(N(C)S(C)(=O)=O)c(-c3ccc4c(c3)ncn4-c3cccnc3)cc12` [Compound 22], the values for the IC50 in assay [1] and in assay [2] were 14.4 nM and 3.3 nM, respectively.
Turning to `CNC(=O)c1c(-c2ccc(F)cc2)oc2cc(N(C)S(C)(=O)=O)c(-c3ccc4ncn(C5CCN(C(=O)OC(C)(C)C)CC5)c4c3)cc12` [Compound 23], the IC50 amounted to 36.7 nM in assay [1] and 8.2 nM in assay [2].
The like results for `CNC(=O)c1c(-c2ccc(F)cc2)oc2cc(N(C)S(C)(=O)=O)c(-c3ccc4ncn(C5CCCN(C(=O)OC(C)(C)C)C5)c4c3)cc12` (centres unmarked) [Compound 24] were, in that order, 760 nM and 82.6 nM.
The like results for `CNC(=O)c1c(-c2ccc(F)cc2)oc2cc(N(C)S(C)(=O)=O)c(-c3ccc4ncn(C5CCCNC5)c4c3)cc12` (centres unmarked) [Compound 25] were, in that order, 585 nM and 51.1 nM.
The like results for `CNC(=O)c1c(-c2ccc(F)cc2)oc2cc(N(C)S(C)(=O)=O)c(-c3ccc4ncn(C5CCOCC5)c4c3)cc12` [Compound 26] were, in that order, 64.7 nM and 12 nM.
As for `CNC(=O)c1c(-c2ccc(F)cc2)oc2cc(N(C)S(C)(=O)=O)c(-c3cc(F)c4ncn(-c5ccc(F)cc5)c4c3)cc12` [Compound 28], the IC50 in assay [1] was determined as 4.2 nM; in assay [2] it was 3.3 nM.
The like results for `CNC(=O)c1c(-c2ccc(F)cc2)oc2cc(N(C)S(C)(=O)=O)c(-c3cc(F)c4ncn(-c5ccc(F)c(F)c5)c4c3)cc12` [Compound 29] were, in that order, 5 nM and 3.3 nM.
The like results for `CNC(=O)c1c(-c2ccc(F)cc2)oc2cc(N(C)S(C)(=O)=O)c(-c3cc(F)c4ncn(-c5cc(F)cc(F)c5)c4c3)cc12` [Compound 30] were, in that order, 6.3 nM and 2.8 nM.
The like results for `CNC(=O)c1c(-c2ccc(F)cc2)oc2cc(N(C)S(C)(=O)=O)c(-c3cc(F)c4ncn(-c5cc(F)c(F)c(F)c5)c4c3)cc12` [Compound 31] were, in that order, 3.4 nM and 3.1 nM.
In the case of `CNC(=O)c1c(-c2ccc(F)cc2)oc2cc(N(C)S(C)(=O)=O)c(-c3cc(F)c4nc(C)n(-c5ccc(F)c(C#N)c5)c4c3)cc12` [Compound 32], the IC50 in assay [1] worked out at 5.3 nM; in assay [2] it was 3.1 nM.
The like results for `CNC(=O)c1c(-c2ccc(F)cc2)oc2cc(N(C)S(C)(=O)=O)c(-c3cc(OC)c4nc(C)n(-c5ccc(F)cc5)c4c3)cc12` [Compound 33] were, in that order, 13.7 nM and 8.8 nM.
As for `CNC(=O)c1c(-c2ccc(F)cc2)oc2cc(N(C)S(C)(=O)=O)c(-c3cc(F)c4nc(C)n(-c5cc(F)cc(F)c5)c4c3)cc12` [Compound 34], the results for the IC50 in assay [1] and in assay [2] were 24.8 nM and 4.3 nM, respectively.
For `CNC(=O)c1c(-c2ccc(F)cc2)oc2cc(N(C)S(C)(=O)=O)c(-c3ccc4ncn(-c5ccc(F)cn5)c4c3)cc12` [Compound 35], the IC50 in assay [1] is 35.2 nM; in assay [2] it was 5.9 nM.
The like results for `CNC(=O)c1c(-c2ccc(F)cc2)oc2cc(N(C)S(C)(=O)=O)c(-c3ccc4ncn(-c5cncc(F)c5)c4c3)cc12` [Compound 36] were, in that order, 36.2 nM and 6.5 nM.
As to `CNC(=O)c1c(-c2ccc(F)cc2)oc2cc(N(C)S(C)(=O)=O)c(-c3cc(OC)c4nc(C)n(-c5cc(F)cc(F)c5)c4c3)cc12` [Compound 37], the IC50 came out at 6.8 nM in assay [1] and 4.3 nM in assay [2].
Take `CNC(=O)c1c(-c2ccc(F)cc2)oc2cc(N(C)S(C)(=O)=O)c(-c3cccc4c3ncn4-c3ccccc3)cc12` [Compound 38]: the IC50 turned out to be 629 nM in assay [1] and 155 nM in assay [2].
The like results for `CNC(=O)c1c(-c2ccc(F)cc2)oc2cc(N(C)S(C)(=O)=O)c(-c3ncc4ncn(-c5ccc(OC(F)(F)F)cc5)c4n3)cc12` [Compound 39, 2-(4-fluorophenyl)-N-methyl-6-(N-methylmethylsulfonamido)-5-(9-(4-(trifluoromethoxy)phenyl)-9H-purin-2-yl)benzofuran-3-carboxamide] were, in that order, 1820 nM and 82.4 nM.
As to `CNC(=O)c1c(-c2ccc(F)cc2)oc2cc(N(C)S(C)(=O)=O)c(-c3ncc4ncn(-c5ccc(F)cc5)c4n3)cc12` [Compound 40], the IC50 in assay [1] was 338 nM; in assay [2] it was 20.2 nM.
The like results for `CNC(=O)c1c(-c2ccc(F)cc2)oc2cc(N(C)S(C)(=O)=O)c(-c3ncc4ncn(-c5ccc(C(F)(F)F)cc5)c4n3)cc12` [Compound 41] were, in that order, 119 nM and 6.7 nM.
Consider `CNC(=O)c1c(-c2ccc(F)cc2)oc2cc(N(C)S(C)(=O)=O)c(-c3ncc4ncn(-c5ccc(C#N)cc5)c4n3)cc12` [Compound 42], for which the IC50 came out at 1520 nM in assay [1] and 299 nM in assay [2].
The like results for `CNC(=O)c1c(-c2ccc(F)cc2)oc2cc(N(C)S(C)(=O)=O)c(-c3ccc4ncn(-c5cc(F)cc(F)c5)c4n3)cc12` [Compound 43] were, in that order, 158 nM and 17.3 nM.
The like results for `CNC(=O)c1c(-c2ccc(F)cc2)oc2cc(N(C)S(C)(=O)=O)c(-c3ccc4ncn(-c5ccc(F)cc5)c4n3)cc12` [Compound 44] were, in that order, 56.5 nM and 7.7 nM.
Take `CNC(=O)c1c(-c2ccc(F)cc2)oc2cc(N(C)S(C)(=O)=O)c(-c3cc4c(cn3)ncn4-c3cc(F)cc(F)c3)cc12` [Compound 45]: the IC50 in assay [1] was found to be 94.8 nM; in assay [2] it was 14.4 nM.

The IC50 is the concentration at which inhibition is half-maximal. Lower therefore signals inhibition by little substance.
